From patent US20020137929A1, “1 - (3-heterocyclylphenyl) isothiourea, -isourea, -guanidine and -amidine herbicidal agents” (Intellectual Property Department, BASF Aktiengesellschaft, priority 1998, published 2002)

Tests used:
[1] = tested on: AMBEL (Ragweed, Common); assay: Preemergence herbicidal evaluation; assay type: in vivo, Ambrosia artemisifolia; conditions: rated 4-5 weeks after treatment
How it was run: (§1)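 Preemergence soil application of compound, sprayed in aqueous acetone at rates equivalent to about 0.0156 to 0.500 kg per hectare onto freshly sown cups. Plant response was judged by eye on a 0-9 scale four to five weeks later.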

[2] = tested on: ORYSAT (Rice, Tebonnet); assay: Preemergence herbicidal evaluation; assay type: in vivo, Oryza sativa, (L.) Tebonnet; conditions: rated 4-5 weeks after treatment
How it was run: as §1

[3] = tested on: CHEAL (Lambsquarters, Common); assay: Postemergence herbicidal evaluation; assay type: in vivo, Chenopodium album
How it was run: (§2)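 Compound is applied as a foliar spray to seedlings about two weeks old, formulated in equal parts acetone and water with 0.5% TWEEN 20 and delivered at 40 psi to give about 0.0156–0.500 kg per hectare. Injury is rated visually 0–9 after four to five weeks.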

[4] = tested on: GLXMAW (Soybean, Williams); assay: Preemergence herbicidal evaluation; assay type: in vivo, Glycine max, (L.) Merr. cv Williams; conditions: rated 4-5 weeks after treatment
How it was run: as §1

[5] = tested on: SAGPY (Arrowhead (Pygmaea)); assay: Postemergence weed control under flooded paddy conditions; assay type: in vivo, Sagittaria pygmaea; conditions: postemergence weeds, 3-4 weeks after treatment
How it was run: (§3)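 Containers holding 3–5 cm weeds and rice at 1.5–2.5 leaves are flooded to 1.5–3 cm above soil. Compound in 50/50 v/v aqueous/acetone is then added directly to the water, about 0.0313–0.500 kg/ha. Plants are kept in the greenhouse and rated 0–9 visually at 3–4 weeks.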

[6] = tested on: CYPSE (Flatsedge); assay: as above; assay type: in vivo, Cyperus serotinus; conditions: postemergence weeds, 3-4 weeks after treatment
How it was run: as §3

[7] = tested on: CYPSE (Flatsedge); assay: Preemergence weed control under flooded paddy conditions; assay type: in vivo, Cyperus serotinus; conditions: rated 3-4 weeks after treatment
How it was run: (§4)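 Seeds or propagules sown in silt loam kept flooded 1.5-3 cm; compounds in 50/50 acetone/water pipetted into flood water at about 0.0313 to 0.500 kg/ha. Greenhouse; visual 0-9 rating versus untreated control 3-4 weeks after treatment.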

[8] = tested on: CYPIR (Rice Flatsedge); assay: Postemergence weed control under flooded paddy conditions; assay type: in vivo, Cyperus iria; conditions: postemergence weeds, 3-4 weeks after treatment
How it was run: as §3

[9] = tested on: ORYSAT (Rice, Tebonnet); assay: Postemergence herbicidal evaluation; assay type: in vivo, Oryza sativa, (L.) Tebonnet
How it was run: as §2

[10] = tested on: CASOB (Sicklepod); assay: Postemergence herbicidal evaluation; assay type: in vivo, Cassia obtusifolia
How it was run: as §2

[11] = tested on: SETVI (Foxtail, Green); assay: Preemergence herbicidal evaluation; assay type: in vivo, Setaria viridis; conditions: rated 4-5 weeks after treatment
How it was run: as §1

[12] = tested on: GALAP (Galium); assay: Postemergence herbicidal evaluation; assay type: in vivo, Galium aparine
How it was run: as §2

[13] = tested on: ZEAMX (Corn, Field); assay: Postemergence herbicidal evaluation; assay type: in vivo, Zea mays
How it was run: as §2

[14] = tested on: MOOVA (Monochoria); assay: Preemergence weed control under flooded paddy conditions; assay type: in vivo, Monochoria vaginalis; conditions: rated 3-4 weeks after treatment
How it was run: as §4

With `Cn1c(C(F)(F)F)cc(=O)n(-c2cc(N=C3SCC(=O)N3CCC(=O)O)c(Cl)cc2F)c1=O` [Compound 31, 2-{{2-Chloro-5-[3,6-dihydro-3-methyl-2,6-dioxo-4-(trifluoromethyl)-1(2H)-pyrimidinyl]-4-fluoro-phenyl}imino}-4-oxo-3-thiazolidinepropionic acid] the “Preemergence herbicidal rating AMBEL” value ([1]; rate 0.0625 kg/ha) was 0.0, the “Preemergence herbicidal rating AMBEL” value ([1]; rate 0.1250 kg/ha) was 4.0 and the “Preemergence herbicidal rating AMBEL” value ([1]; rate 0.2500 kg/ha) was 9.0. For the same compound, the “Preemergence herbicidal rating ORYSAT” value ([2]; rate 0.0625 kg/ha) was 0.0, the “Preemergence herbicidal rating ORYSAT” value ([2]; rate 0.1250 kg/ha) was 2.0 and the “Preemergence herbicidal rating ORYSAT” value ([2]; rate 0.2500 kg/ha) was 6.0. For the same compound, the “Postemergence herbicidal rating CHEAL” value ([3]; Rate 0.0158 kg/ha) was 0.0, the “Postemergence herbicidal rating CHEAL” value ([3]; Rate 0.0315 kg/ha) was 2.0 and the “Postemergence herbicidal rating CHEAL” value ([3]; Rate 0.0630 kg/ha) was 7.0. For the same compound, the “Preemergence herbicidal rating GLXMAW” value ([4]; rate 0.0625 kg/ha) was 3.0, the “Preemergence herbicidal rating GLXMAW” value ([4]; rate 0.1250 kg/ha) was 5.0 and the “Preemergence herbicidal rating GLXMAW” value ([4]; rate 0.2500 kg/ha) was 6.0. For the same compound, the “Herbicidal rating SAGPY” value ([5]; rate 0.0625 kg/ha) was 0.0, the “Herbicidal rating SAGPY” value ([5]; rate 0.1250 kg/ha) was 0.0 and the “Herbicidal rating SAGPY” value ([5]; rate 0.2500 kg/ha) was 0.0. The “Herbicidal rating CYPSE” value ([6]; rate 0.0625 kg/ha) was 0.0, the “Herbicidal rating CYPSE” value ([6]; rate 0.1250 kg/ha) was 0.0 and the “Herbicidal rating CYPSE” value ([6]; rate 0.2500 kg/ha) was 0.0. For the same compound, the “Herbicidal rating CYPSE” value ([7]; 0.0625 kg/ha) was 0.0, the “Herbicidal rating CYPSE” value ([7]; 0.1250 kg/ha) was 0.0 and the “Herbicidal rating CYPSE” value ([7]; 0.2500 kg/ha) was 0.0. The “Herbicidal rating CYPIR” value ([8]; rate 0.0625 kg/ha) was 0.0, the “Herbicidal rating CYPIR” value ([8]; rate 0.1250 kg/ha) was 0.0 and the “Herbicidal rating CYPIR” value ([8]; rate 0.2500 kg/ha) was 2.5. For the same compound, the “Postemergence herbicidal rating ORYSAT” value ([9]; Rate 0.0158 kg/ha) was 3.5, the “Postemergence herbicidal rating ORYSAT” value ([9]; Rate 0.0315 kg/ha) was 4.0 and the “Postemergence herbicidal rating ORYSAT” value ([9]; Rate 0.0630 kg/ha) was 5.5. For the same compound, the “Postemergence herbicidal rating CASOB” value ([10]; Rate 0.0158 kg/ha) was 0.0, the “Postemergence herbicidal rating CASOB” value ([10]; Rate 0.0315 kg/ha) was 0.0 and the “Postemergence herbicidal rating CASOB” value ([10]; Rate 0.0630 kg/ha) was 0.0. For the same compound, the “Preemergence herbicidal rating SETVI” value ([11]; rate 0.0625 kg/ha) was 1.0, the “Preemergence herbicidal rating SETVI” value ([11]; rate 0.1250 kg/ha) was 9.0 and the “Preemergence herbicidal rating SETVI” value ([11]; rate 0.2500 kg/ha) was 9.0. For the same compound, the “Postemergence herbicidal rating GALAP” value ([12]; Rate 0.0158 kg/ha) was 0.0, the “Postemergence herbicidal rating GALAP” value ([12]; Rate 0.0315 kg/ha) was 1.0 and the “Postemergence herbicidal rating GALAP” value ([12]; Rate 0.0630 kg/ha) was 3.0. The “Postemergence herbicidal rating ZEAMX” value ([13]; Rate 0.0158 kg/ha) was 7.0, the “Postemergence herbicidal rating ZEAMX” value ([13]; Rate 0.0315 kg/ha) was 7.5 and the “Postemergence herbicidal rating ZEAMX” value ([13]; Rate 0.0630 kg/ha) was 8.0. For the same compound, the “Herbicidal rating MOOVA” value ([14]; 0.0625 kg/ha) was 0.0, the “Herbicidal rating MOOVA” value ([14]; 0.1250 kg/ha) was 0.0 and the “Herbicidal rating MOOVA” value ([14]; 0.2500 kg/ha) was 2.5.

In the case of `Cn1c(C(F)(F)F)cc(=O)n(-c2cc(N=C3SCC(=O)N3CC(=O)NS(C)(=O)=O)c(Cl)cc2F)c1=O` [Compound 38, 2-{{2-Chloro-5-[3,6-dihydro-3-methyl-2,6-dioxo-4-(trifluoromethyl)-1(2H)-pyrimidinyl]-4-fluoro-phenyl}imino}-N-(methylsulfonyl)-4-oxo-3-thiazolidineacetamide], the “Preemergence herbicidal rating AMBEL” value ([1]; rate 0.0313 kg/ha) is reported as 0.0, the “Preemergence herbicidal rating AMBEL” value ([1]; rate 0.0625 kg/ha) is reported as 0.0 and the “Preemergence herbicidal rating AMBEL” value ([1]; rate 0.1250 kg/ha) is reported as 0.0. The “Preemergence herbicidal rating AMBEL” value ([1]; rate 0.2500 kg/ha) was 5.0, the “Preemergence herbicidal rating ORYSAT” value ([2]; rate 0.0313 kg/ha) was 0.0 and the “Preemergence herbicidal rating ORYSAT” value ([2]; rate 0.0625 kg/ha) was 0.0. The “Preemergence herbicidal rating ORYSAT” value ([2]; rate 0.1250 kg/ha) was 0.0, the “Preemergence herbicidal rating ORYSAT” value ([2]; rate 0.2500 kg/ha) was 2.0 and the “Postemergence herbicidal rating CHEAL” value ([3]; Rate 0.0156 kg/ha) was 1.0. For the same compound, the “Postemergence herbicidal rating CHEAL” value ([3]; Rate 0.0313 kg/ha) was 3.0, the “Postemergence herbicidal rating CHEAL” value ([3]; Rate 0.0625 kg/ha) was 4.0 and the “Postemergence herbicidal rating CHEAL” value ([3]; Rate 0.1250 kg/ha) was 6.0. For the same compound, the “Postemergence herbicidal rating CHEAL” value ([3]; Rate 0.2500 kg/ha) was 9.0, the “Preemergence herbicidal rating GLXMAW” value ([4]; rate 0.0313 kg/ha) was 0.0 and the “Preemergence herbicidal rating GLXMAW” value ([4]; rate 0.0625 kg/ha) was 2.0. The “Preemergence herbicidal rating GLXMAW” value ([4]; rate 0.1250 kg/ha) was 2.0, the “Preemergence herbicidal rating GLXMAW” value ([4]; rate 0.2500 kg/ha) was 6.0 and the “Herbicidal rating SAGPY” value ([5]; rate 0.0313 kg/ha) was 0.0. For the same compound, the “Herbicidal rating SAGPY” value ([5]; rate 0.0625 kg/ha) was 3.0, the “Herbicidal rating SAGPY” value ([5]; rate 0.1250 kg/ha) was 4.0 and the “Herbicidal rating SAGPY” value ([5]; rate 0.2500 kg/ha) was 9.0. The “Herbicidal rating CYPSE” value ([6]; rate 0.0313 kg/ha) was 0.0, the “Herbicidal rating CYPSE” value ([6]; rate 0.0625 kg/ha) was 0.0 and the “Herbicidal rating CYPSE” value ([6]; rate 0.1250 kg/ha) was 0.0. The “Herbicidal rating CYPSE” value ([6]; rate 0.2500 kg/ha) was 3.0, the “Herbicidal rating CYPSE” value ([7]; 0.0313 kg/ha) was 0.0 and the “Herbicidal rating CYPSE” value ([7]; 0.0625 kg/ha) was 0.0. The “Herbicidal rating CYPSE” value ([7]; 0.1250 kg/ha) was 0.0, the “Herbicidal rating CYPSE” value ([7]; 0.2500 kg/ha) was 3.0 and the “Herbicidal rating CYPIR” value ([8]; rate 0.0313 kg/ha) was 3.0. For the same compound, the “Herbicidal rating CYPIR” value ([8]; rate 0.0625 kg/ha) was 3.0, the “Herbicidal rating CYPIR” value ([8]; rate 0.1250 kg/ha) was 5.0 and the “Herbicidal rating CYPIR” value ([8]; rate 0.2500 kg/ha) was 5.0. For the same compound, the “Postemergence herbicidal rating ORYSAT” value ([9]; Rate 0.0156 kg/ha) was 0.5, the “Postemergence herbicidal rating ORYSAT” value ([9]; Rate 0.0313 kg/ha) was 0.5 and the “Postemergence herbicidal rating ORYSAT” value ([9]; Rate 0.0625 kg/ha) was 2.5. For the same compound, the “Postemergence herbicidal rating ORYSAT” value ([9]; Rate 0.1250 kg/ha) was 6.0, the “Postemergence herbicidal rating ORYSAT” value ([9]; Rate 0.2500 kg/ha) was 7.5 and the “Postemergence herbicidal rating CASOB” value ([10]; Rate 0.0156 kg/ha) was 0.0. The “Postemergence herbicidal rating CASOB” value ([10]; Rate 0.0313 kg/ha) was 1.0, the “Postemergence herbicidal rating CASOB” value ([10]; Rate 0.0625 kg/ha) was 2.0 and the “Postemergence herbicidal rating CASOB” value ([10]; Rate 0.1250 kg/ha) was 3.0. For the same compound, the “Postemergence herbicidal rating CASOB” value ([10]; Rate 0.2500 kg/ha) was 3.0, the “Preemergence herbicidal rating SETVI” value ([11]; rate 0.0313 kg/ha) was 0.0 and the “Preemergence herbicidal rating SETVI” value ([11]; rate 0.0625 kg/ha) was 3.0. For the same compound, the “Preemergence herbicidal rating SETVI” value ([11]; rate 0.1250 kg/ha) was 7.0, the “Preemergence herbicidal rating SETVI” value ([11]; rate 0.2500 kg/ha) was 9.0 and the “Postemergence herbicidal rating GALAP” value ([12]; Rate 0.0156 kg/ha) was 0.0. For the same compound, the “Postemergence herbicidal rating GALAP” value ([12]; Rate 0.0313 kg/ha) was 1.0, the “Postemergence herbicidal rating GALAP” value ([12]; Rate 0.0625 kg/ha) was 3.0 and the “Postemergence herbicidal rating GALAP” value ([12]; Rate 0.1250 kg/ha) was 3.0. The “Postemergence herbicidal rating GALAP” value ([12]; Rate 0.2500 kg/ha) was 8.0, the “Postemergence herbicidal rating ZEAMX” value ([13]; Rate 0.0156 kg/ha) was 7.5 and the “Postemergence herbicidal rating ZEAMX” value ([13]; Rate 0.0313 kg/ha) was 7.5. The “Postemergence herbicidal rating ZEAMX” value ([13]; Rate 0.0625 kg/ha) was 7.5, the “Postemergence herbicidal rating ZEAMX” value ([13]; Rate 0.1250 kg/ha) was 7.5 and the “Postemergence herbicidal rating ZEAMX” value ([13]; Rate 0.2500 kg/ha) was 7.5. For the same compound, the “Herbicidal rating MOOVA” value ([14]; 0.0313 kg/ha) was 9.0, the “Herbicidal rating MOOVA” value ([14]; 0.0625 kg/ha) was 9.0 and the “Herbicidal rating MOOVA” value ([14]; 0.1250 kg/ha) was 9.0. The “Herbicidal rating MOOVA” value ([14]; 0.2500 kg/ha) was 9.0.
